According to patent publication US20160331743A1 (UROGEN PHARMA LTD, priority 2014, published 2016):
Entries after “also recorded” stand apart in the source; their conditions may differ. Where two headings read alike, the source gives them in different places.

System: carcinoma in situ (CIS) bladder cancer
Conditions: imiquimod 0.4%, once weekly for 6 weeks
Source text: Patients who have been diagnosed with CIS bladder cancer are potential candidates for the study. The CIS lesion(s) may be primary, secondary, or recurrent, and may be concomitant to a Ta or T1 lesion, provided the Ta or T1 lesion has been fully resected.
After provision of written informed consent, patients are to be evaluated for study eligibility during the screening period within 28 days (4 weeks) before Day 0 (i.e., the first day of study drug administration). Screening evaluations to be performed include medical history, physical examination, vital signs, Eastern Cooperative Oncology Group (ECOG) performance status, hematology and clinical chemistry, and urinalysis with culture. Screening evaluations also include a cystoscopic examination of the bladder with mapping and biopsy/ies of all suspicious areas between Days −28 and −14, followed by a bladder washing for cytology. Patients who have undergone such examinations as part of the diagnostic process outside of the study are not required to undergo the procedures again, provided the examinations occurred within the specified timeframe and positive slides are available for a central pathology and cytology review.
In cases with no visible lesions, at least one biopsy will be taken at the prior positive site and at least 1 additional random biopsy will be taken. Response to treatment will be determined based on urine cytology and tissue sample histology findings.
Patients meeting all of the following criteria were considered eligible for study entry: • 1. Males or female patient is aged ≧18 years. • 2. Patient has pathologically-proven, recurrent, primary, secondary, or concomitant carcinoma in situ disease, defined by having either CIS alone or Ta or T1 with CIS, provided the Ta or T1 lesion(s) has/have been fully resected. In cases with T1 tumor lesions, muscularis propria tissue should be in the resected specimen to confirm that it is tumor-free. • 3. Patient has undergone mapping of the bladder between Days −28 and −14, with at least one biopsy providing pathological confirmation of CIS of the bladder. • 4. Patient has undergone bladder washing for cytology between Days −28 and −1. In patients in whom Ta or T1 lesion(s) were resected, the bladder washing must have occurred after the resection. • 5. Patient has an ECOG performance status 0-2. • 6. Patient has adequate bone marrow, hepatic, and renal function within 4 weeks before Day 0.

CC(C)Cn1cnc2c(N)nc3ccccc3c21 [imiquimod, 1-Isobutyl-1H-imidazo[4,5-c]quinolin-4-amine]
Summary (response to treatment) (Patient 1 (BCG refractory, CIS), 50 mL intravesical): Responder
Histology post treatment (Patient 1 (prior BCG, CIS prior to treatment), 200 mg in 50 mL intravesical, assessed 5 to 7 weeks after last dose): no tumor was detecable
Tumour detectable in follow-up evaluation (Patient 1, preliminary results, 50 mL intravesical): no tumour was detectable
Summary (response to treatment) (Patient 2 (prior chemo, BCG; CIS), 50 mL intravesical, evaluation still ongoing): partial responder
Histology post treatment (Patient 2 (prior chemotherapy, BCG, 9x TURBT, CIS prior to treatment), 50 mL intravesical): still CIS detected and CIS
Cytology post treatment (Patient 3 (no prior treatment), 50 mL intravesical): no tumor was detected any more
Summary (response to treatment) (Patient 3 (no prior treatment, CIS + papillary cancer), 50 mL intravesical): Responder
Histology post treatment (Patient 3 (no prior treatment, CIS + papillary high and low grade cancer prior to treatment), 50 mL intravesical): no tumor was detected any more; also recorded: No tumor
Histology post treatment (Patient 4 (prior TURB, low grade prior to treatment; had no CIS bladder cancer, excluded from study), 50 mL intravesical): No tumor
Histology post treatment (Patient 5 (prior BCG/Mitomycin, CIS prior to treatment), 50 mL intravesical): no tumor was detectable
Summary (response to treatment) (Patient 5 (prior BCG/Mitomycin, CIS), 50 mL intravesical): Responder
Number of patients with complete remission of the CIS bladder cancer as assessed by histology (of the 5 patients analyzed (patients 1, 3, 4, 5 counted), 50 mL intravesical): Four
